Measured values as given in PubChem BioAssay (NCI).
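Values below derive from 48-hour exposures of cells grown in 96-well plates, with endpoints linearly interpolated between the two concentrations bracketing the appropriate inhibition level. TGI marks complete inhibition of growth.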

Experiments:
Assay in all cases: NCI-60 cell line screen, 48 h
786-0 renal = tested on: 786-0 renal
A498 renal = tested on: A498 renal
A549 NSCLC = tested on: A549 NSCLC
ACHN renal = tested on: ACHN renal
CAKI-1 renal = tested on: CAKI-1 renal
CCRF-CEM leukemia = tested on: CCRF-CEM leukemia
COLO 205 colon = tested on: COLO 205 colon
DLD-1 colon = tested on: DLD-1 colon
DMS 273 small cell lung = tested on: DMS 273 small cell lung
EKVX NSCLC = tested on: EKVX NSCLC
HCC-2998 colon = tested on: HCC-2998 colon
HCT-116 colon = tested on: HCT-116 colon
HCT-15 colon = tested on: HCT-15 colon
HL-60(TB) leukemia = tested on: HL-60(TB) leukemia
HOP-18 NSCLC = tested on: HOP-18 NSCLC
HOP-62 NSCLC = tested on: HOP-62 NSCLC
HOP-92 NSCLC = tested on: HOP-92 NSCLC
HT29 colon = tested on: HT29 colon
IGROV1 ovarian = tested on: IGROV1 ovarian
K-562 leukemia = tested on: K-562 leukemia
KM12 colon = tested on: KM12 colon
KM20L2 colon = tested on: KM20L2 colon
LOX IMVI melanoma = tested on: LOX IMVI melanoma
LXFL 529 NSCLC = tested on: LXFL 529 NSCLC
M14 melanoma = tested on: M14 melanoma
M19-MEL melanoma = tested on: M19-MEL melanoma
MALME-3M melanoma = tested on: MALME-3M melanoma
MOLT-4 leukemia = tested on: MOLT-4 leukemia
NCI-H23 lung = tested on: NCI-H23 lung
NCI-H460 lung = tested on: NCI-H460 lung
NCI-H522 lung = tested on: NCI-H522 lung
OVCAR-3 ovarian = tested on: OVCAR-3 ovarian
OVCAR-4 ovarian = tested on: OVCAR-4 ovarian
OVCAR-5 ovarian = tested on: OVCAR-5 ovarian
OVCAR-8 ovarian = tested on: OVCAR-8 ovarian
RPMI-8226 leukemia = tested on: RPMI-8226 leukemia
RXF 393 renal = tested on: RXF 393 renal
RXF-631 renal = tested on: RXF-631 renal
SF-268 CNS = tested on: SF-268 CNS
SF-295 CNS = tested on: SF-295 CNS
SF-539 CNS = tested on: SF-539 CNS
SK-MEL-2 melanoma = tested on: SK-MEL-2 melanoma
SK-MEL-28 melanoma = tested on: SK-MEL-28 melanoma
SK-MEL-5 melanoma = tested on: SK-MEL-5 melanoma
SK-OV-3 ovarian = tested on: SK-OV-3 ovarian
SN12C renal = tested on: SN12C renal
SNB-19 CNS = tested on: SNB-19 CNS
SNB-75 CNS = tested on: SNB-75 CNS
SNB-78 CNS = tested on: SNB-78 CNS
SW-620 colon = tested on: SW-620 colon
TK-10 renal = tested on: TK-10 renal
U251 CNS = tested on: U251 CNS
UACC-257 melanoma = tested on: UACC-257 melanoma
UACC-62 melanoma = tested on: UACC-62 melanoma
UO-31 renal = tested on: UO-31 renal
XF 498 CNS = tested on: XF 498 CNS

Compound: Cc1cc(C)nc(NS(=O)(=O)c2ccc(NC(=O)c3cccc4c(Nc5ccc(S(=O)(=O)N=C(N)N)cc5)c5ccccc5nc34)cc2)n1
- TGI (786-0 renal): 83.6 µM
- TGI (A498 renal): > 100 µM
- TGI (A549 NSCLC): > 100 µM
- TGI (ACHN renal): > 100 µM
- TGI (CAKI-1 renal): 55.2 µM
- TGI (CCRF-CEM leukemia): > 100 µM
- TGI (COLO 205 colon): > 100 µM
- TGI (DLD-1 colon): 42.8 µM
- TGI (DMS 273 small cell lung): 80.6 µM
- TGI (EKVX NSCLC): 83.2 µM
- TGI (HCC-2998 colon): 22.6 µM
- TGI (HCT-116 colon): > 100 µM
- TGI (HCT-15 colon): > 100 µM
- TGI (HL-60(TB) leukemia): 26.6 µM
- TGI (HOP-18 NSCLC): > 100 µM
- TGI (HOP-62 NSCLC): 94.3 µM
- TGI (HOP-92 NSCLC): 81.7 µM
- TGI (HT29 colon): > 100 µM
- TGI (IGROV1 ovarian): > 100 µM
- TGI (K-562 leukemia): > 100 µM
- TGI (KM12 colon): 26.9 µM
- TGI (KM20L2 colon): > 100 µM
- TGI (LOX IMVI melanoma): > 100 µM
- TGI (LXFL 529 NSCLC): 59.1 µM
- TGI (M14 melanoma): > 100 µM
- TGI (M19-MEL melanoma): > 100 µM
- TGI (MALME-3M melanoma): > 100 µM
- TGI (MOLT-4 leukemia): > 100 µM
- TGI (NCI-H23 lung): > 100 µM
- TGI (NCI-H460 lung): > 100 µM
- TGI (NCI-H522 lung): > 100 µM
- TGI (OVCAR-3 ovarian): 35.5 µM
- TGI (OVCAR-4 ovarian): 43.7 µM
- TGI (OVCAR-5 ovarian): > 100 µM
- TGI (OVCAR-8 ovarian): > 100 µM
- TGI (RPMI-8226 leukemia): > 100 µM
- TGI (RXF 393 renal): 52 µM
- TGI (RXF-631 renal): > 100 µM
- TGI (SF-268 CNS): > 100 µM
- TGI (SF-295 CNS): > 100 µM
- TGI (SF-539 CNS): > 100 µM
- TGI (SK-MEL-2 melanoma): > 100 µM
- TGI (SK-MEL-28 melanoma): 99.8 µM
- TGI (SK-MEL-5 melanoma): > 100 µM
- TGI (SK-OV-3 ovarian): > 100 µM
- TGI (SN12C renal): > 100 µM
- TGI (SNB-19 CNS): > 100 µM
- TGI (SNB-75 CNS): > 100 µM
- TGI (SNB-78 CNS): 99.2 µM
- TGI (SW-620 colon): 42.4 µM
- TGI (TK-10 renal): 92.3 µM
- TGI (U251 CNS): > 100 µM
- TGI (UACC-257 melanoma): 60 µM
- TGI (UACC-62 melanoma): > 100 µM
- TGI (UO-31 renal): > 100 µM
- TGI (XF 498 CNS): > 100 µM
